Values quoted from earlier work, collected in patent publication US7265145B2, “Substituted piperidines and pyrrolidines as calcium sensing receptor modulators and method” (Bristol-Myers Squibb Company, priority 2003, dated 2007).

Columns and labels:
[1] = OVX rats; oral administration; in the presence of an anti-resorptive agent
[2] = intravenous bolus injection
[3] = postmenopausal women; placebo-controlled trial

Compound | bone mass [1] | serum PTH [2] | reduce the risk of non-traumatic, non-spine fractures [3] [%] | reduce the risk of spine fractures [3] [%]
CC(C)(Cc1ccc2ccccc2c1)NC[C@@H](O)COc1cccc(Cl)c1C#N [NPS-2143] | increase in bone mass | transient increase in serum PTH | – | –
PTH peptide fragment (1-34): PTH peptide fragment (1-34) of parathyroid hormone, stimulator of bone formation (SVSEIQLMHNLGKHLNSMERVEWLRKKLQDVHNF; Parathyroid hormone; UniProt P01270 32-65, looked up, fragment) | – | – | 54 | 65
